Data on nine compounds can be found in PMC9105102, “Development and Biochemical Characterization of Self-Immolative Linker Containing GnRH-III-Drug Conjugates” (International Journal of Molecular Sciences, 2022).

The test system of series [1] is A2780 human ovarian cancer cells. Description: cells. The class given is cell-based. How it is done: (§1) For cultivation of A2780 human ovarian and Panc-1 human pancreatic cancer cells, RPMI-1640 medium with 10% FBS, L-glutamine and 1% Penicillin-Streptomycin were used. Cells were cultured in appropriate plastic flasks at 37 °C (humidified atmosphere, 5% CO2/95% air).
(§2) A set-up of 96-well plates was used to study the in vitro antiproliferative activity. Therefore, 5 × 10^3 cells in 100 µL complete medium were seeded to each well. After 24 h, complete medium was removed and cells were treated with 200 µL bioconjugate solution in serum-free medium (concentration range 0.0032–50 µM, control wells were treated with serum-free medium). Medium was taken out after 6 h treatment (PTX conjugates) or 24 h (Dau conjugates), replaced by complete medium and incubation was continued. To determine the cell viability, medium was removed after 72 h and 100 µL resazurin solution [45] (10% Tox-8 in FBS-free medium) was added to each well, followed by additional incubation of 2–3 h. A Tecan infinite 200 pro microplate reader (Tecan Group Ltd., Zürich, Switzerland) was used for fluorescence detection (λEx = 560 and λEm = 590 nm). Experiments were performed at least twice, using three parallels per concentration. The cell viability (and IC50 values) was calculated with GraphPad Prism using a nonlinear regression (sigmoidal dose-response).

In series [2] the test system is Panc-1 human pancreatic cancer cells. Nature of the series: cells. Type of series: cell-based. The following applies: for activity on Panc-1 cells lower than on A2780: ratio Panc-1 vs A2780. On the procedure: as §1, §2
Series [3] concerns the target T1, GnRH-R (membranes of human pituitary) (Homo sapiens, UniProt P30968).
T1 construct: GnRH-Rs expressed on human pituitary and human prostate cancer cells; from tissue; host or cells: normal human pituitary (anterior lobe), autopsy; membrane homogenate
T1 sequence (P30968 1-328): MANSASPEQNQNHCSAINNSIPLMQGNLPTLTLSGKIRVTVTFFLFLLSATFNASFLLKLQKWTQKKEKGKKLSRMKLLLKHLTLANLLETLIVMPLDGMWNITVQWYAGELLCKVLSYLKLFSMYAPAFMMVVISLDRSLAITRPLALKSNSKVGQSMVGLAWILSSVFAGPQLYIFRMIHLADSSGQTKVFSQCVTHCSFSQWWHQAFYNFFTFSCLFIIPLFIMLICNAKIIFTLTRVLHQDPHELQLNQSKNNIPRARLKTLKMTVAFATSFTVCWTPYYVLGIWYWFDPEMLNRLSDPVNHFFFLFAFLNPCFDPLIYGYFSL
Description: Radioligand competition assay, displacement of [125I]-GnRH-I-[6D-Trp] (triptorelin), human pituitary membranes. The following applies: for GnRH-R binding of the radiotracer affected: at concentrations up to 1 µM, unrelated peptides; for displacement of radio-labelled triptorelin from GnRH-Rs: human pituitary and human prostate cancer tissues, GnRH unrelated peptides. Type of series: binding. On the procedure:
(§3) A ligand competition assay with [^125I]-GnRH-I-[^6D-Trp] as radioligand was performed to examine the binding affinity of the GnRH-III-drug conjugates to GnRH-Rs expressed on human pituitary and human prostate cancer cells. Human prostate cancer cells were derived from patients at the time of initial surgical treatment, while tissue samples from normal human pituitary (anterior lobe) were obtained by autopsy. All subjects were informed and gave their consent for inclusion before they participated in the study. The preparation of the cell membranes was carried out according to the literature. The chloramines-T method was used to prepare radioiodinated GnRH-I agonist triptorelin which was purified by RP-HPLC [10, 38, 39, 47]. The displacement of [^125I]-GnRH-I-[^6D-Trp] was studied in an in vitro ligand competition assay to determine the binding affinities of the non-radio-labeled GnRH-III bioconjugates to GnRH-RI [10, 11, 38, 39]. Membrane homogenates containing […] protein were incubated in duplicate or triplicate with 60–80,000 cpm [^125I]-GnRH-I-[^6D-Trp] and rising concentration (1 pM—1 µM) of nonradioactive bioconjugates as competitors in a total volume of […] binding buffer. Protein concentration was determined by the method of Bradford using a Bio-Rad protein assay kit (Bio-Rad Laboratories, Hercules, CA, USA). The LIGAND-PC computerized curve-fitting program of Munson and Rodbard was used to determine the receptor binding characteristics and IC50 values.
For orientation: Displacement assays read how much labelled ligand stays bound in the presence of the test substance.

In series [4] the target is T2, GnRH-R (membranes of human prostate cancer specimens) (Homo sapiens, UniProt P30968).
T2 construct: GnRH-Rs expressed on human pituitary and human prostate cancer cells; from tissue; host or cells: human prostate cancer specimens from patients (surgery); membrane homogenate
T2 sequence (P30968 1-328): T1 sequence (P30968 1-328)
Description: Radioligand competition assay, displacement of [125I]-GnRH-I-[6D-Trp] (triptorelin), human prostate cancer membranes. The conditions noted are these: mean ± SE of two to three determinations, read-out: IC50 Prostate Cancer, competitive inhibition of [125I][6D-Trp]-GnRH-I binding. On the procedure: as §3

Series [5] is described as follows: Degradation of drug conjugates in presence of rat liver lysosomal homogenate (LC-MS). The class given is in vitro ADME. The following applies: pH 5, 37 °C. How it is done: The preparation of the rat liver lysosomal homogenate was carried out as recently reported. A Qubit Protein Assay Kit (Thermo Fischer Scientific, Waltham, MA, USA) was used to examine the concentration of the lysosomal proteins.
Initially, a stock solution of the GnRH-III-Dau conjugates in water (5 µg/µL) was prepared. For the degradation reaction, the conjugates and the lysosomal homogenate were diluted together in 0.2 M NaOAc buffer (pH 5) to a concentration of 0.25 µg/µL each. These mixtures were kept at 37 °C and at distinct time points (5 min, 1 h, 2 h, 4 h, 8 h and 24 h), 15 µL of each sample were quenched with 2 µL acetic acid and analyzed by LC-MS (System I).
The GnRH-III-PTX conjugates were dissolved in DMSO to a concentration of 10 mM. The reaction was carried out in 0.2 M NaOAc buffer (pH 5) with 10 µM conjugate and 0.025 µg/mL lysosomal homogenate. The reaction mixtures were incubated at 37 °C and aliquots of 60 μL were taken at 5 min, 1 h, 2 h, 4 h, 8 h and 24 h and quenched with 5 μL of acetic acid. The analysis of the samples was performed by LC–MS (System-II).

Where [6] appears, read: A2780 cells, treatment 24 h (Dau conjugates) or 6 h (PTX compounds), viability at 72 h, mean ± SE of two to three determinations, read-out: A2780 IC50.
Where [7] appears, read: Panc-1 cells, treatment 24 h (Dau conjugates) or 6 h (PTX compounds), viability at 72 h, mean ± SE of two to three determinations, read-out: Panc-1 IC50.

Like-named read-outs stand apart in the source and are kept apart here. Bounds are passed on as bounds.

For the compound `COc1cccc2c1C(=O)c1c(O)c3c(c(O)c1C2=O)C[C@@](O)(C(C)=O)C[C@@H]3O[C@H]1C[C@H](N)[C@H](O)[C@H](C)O1` [Dau, daunorubicin, reference compound], the concentration for half-maximal inhibition (IC50) (usually the midpoint of a concentration-inhibition curve) turned out to be 210 ± 10 nM in series [1] (Homo sapiens, A2780, read-out: A2780 IC50) and 2430 ± 580 nM in series [2] (Homo sapiens, PANC-1, read-out: Panc-1 IC50). Also, the “activity on Panc-1 cells lower than on A2780” value in series [2] is “approximately 10 times”.

Consider `CC(=O)O[C@H]1C(=O)[C@@]2(C)[C@H]([C@H](OC(=O)c3ccccc3)[C@]3(O)C[C@H](OC(=O)[C@H](O)[C@@H](NC(=O)c4ccccc4)c4ccccc4)C(C)=C1C3(C)C)[C@]1(OC(C)=O)CO[C@@H]1C[C@@H]2O` [PTX, paclitaxel, reference compound], for which the IC50 amounted to 20 ± 1 nM in series [1] (Homo sapiens, A2780 cells, treatment 24 h (Dau conjugates) or 6 h (PTX compounds), viability at 72 h, mean ± SE of two to three determinations, read-out: A2780 IC50) and 170 ± 10 nM in series [2] (Homo sapiens, Panc-1 cells, treatment 24 h (Dau conjugates) or 6 h (PTX compounds), viability at 72 h, mean ± SE of two to three determinations, read-out: Panc-1 IC50).

With `CCCC(=O)NCCCC[C@H](NC(=O)[C@H](Cc1c[nH]c2ccccc12)NC(=O)[C@H](Cc1c[nH]cn1)NC(=O)[C@@H]1CCC(=O)N1)C(=O)N[C@@H](Cc1c[nH]cn1)C(=O)N[C@@H](CC(=O)O)C(=O)N[C@@H](Cc1c[nH]c2ccccc12)C(=O)N[C@@H](CCCCN)C(=O)N1CCC[C@H]1C(=O)NCC(N)=O` [Peptide I, GnRH-III-[^4Lys(Bu)]], the half-inhibitory concentration (IC50) in series [3] (human pituitary membranes, mean ± SE of two to three determinations, read-out: IC50 Pituitary, competitive inhibition of [125I][6D-Trp]-GnRH-I binding) amounted to 2.72 ± 0.95 nM; in series [4], 3.11 ± 0.76 nM.

As for `CCCC(=O)NCCCC[C@H](NC(=O)[C@H]1Cc2ccccc2CN1C(=O)[C@@H]1CCC(=O)N1)C(=O)N[C@@H](Cc1c[nH]cn1)C(=O)N[C@@H](CC(=O)O)C(=O)N[C@@H](Cc1c[nH]c2ccccc12)C(=O)N[C@@H](CCCCNC(=O)CCCC(=O)N[C@H](C(=O)N[C@@H](CCCNC(N)=O)C(=O)Nc1ccc(COC(=O)N[C@H]2C[C@H](O[C@H]3C[C@](O)(C(C)=O)Cc4c(O)c5c(c(O)c43)C(=O)c3c(OC)cccc3C5=O)O[C@@H](C)[C@H]2O)cc1)C(C)C)C(=O)N1CCC[C@H]1C(=O)NCC(N)=O` [compound 11, GnRH-III-[2ΔHis-3D-Tic,8Lys(glutaryl-Val-Cit-PABC-Dau)]], the “receptor binding affinity of 11 relative to corresponding Val-Ala conjugate 13” value in series [3] (Val-Cit vs Val-Ala) is recorded as “twice as high”. The “activity on Panc-1 cells lower than on A2780” value in series [2] was “more than 20 times”.

`CCCC(=O)NCCCC[C@H](NC(=O)[C@H]1Cc2ccccc2CN1C(=O)[C@@H]1CCC(=O)N1)C(=O)N[C@@H](Cc1c[nH]cn1)C(=O)N[C@@H](CC(=O)O)C(=O)N[C@@H](Cc1c[nH]c2ccccc12)C(=O)N[C@@H](CCCCNC(=O)CCCC(=O)N[C@H](C(=O)N[C@@H](C)C(=O)Nc1ccc(COC(=O)N[C@H]2C[C@H](O[C@H]3C[C@](O)(C(C)=O)Cc4c(O)c5c(c(O)c43)C(=O)c3c(OC)cccc3C5=O)O[C@@H](C)[C@H]2O)cc1)C(C)C)C(=O)N1CCC[C@H]1C(=O)NCC(N)=O` [compound 13]: the “activity on Panc-1 cells lower than on A2780” value in series [2] was “more than 20 times”.

On to `CCCC(=O)NCCCC[C@H](NC(=O)[C@H](Cc1c[nH]c2ccccc12)NC(=O)[C@H](Cc1c[nH]cn1)NC(=O)[C@@H]1CCC(=O)N1)C(=O)N[C@@H](Cc1c[nH]cn1)C(=O)N[C@@H](CC(=O)O)C(=O)N[C@@H](Cc1c[nH]c2ccccc12)C(=O)N[C@@H](CCCCNC(=O)CCCC(=O)N[C@H](C(=O)N[C@@H](CCCNC(N)=O)C(=O)Nc1ccc(COC(=O)N(C)CCN(C)C(=O)O[C@@H](C(=O)O[C@H]2C[C@@]3(O)[C@@H](OC(=O)c4ccccc4)[C@@H]4[C@]5(OC(C)=O)CO[C@@H]5C[C@H](O)[C@@]4(C)C(=O)[C@H](OC(C)=O)C(=C2C)C3(C)C)[C@@H](NC(=O)c2ccccc2)c2ccccc2)cc1)C(C)C)C(=O)N1CCC[C@H]1C(=O)NCC(N)=O` [compound 14], for which the 50% inhibitory concentration (IC50) in series [3] stood at 10.5 ± 2.01 nM; in series [4] it was 10.7 ± 1.82 nM; in series [1] (setting [6]), 670 ± 70 nM; in series [2] (setting [7]), 5030 ± 1910 nM. The “detection of the diamine-PTX fragment” value in series [5] (after 5 min of incubation) is “could be already detected”. Also, the “release of the free PTX” value in series [5] (within 24 h) is “could not be detected”.

For the compound `CCCC(=O)NCCCC[C@H](NC(=O)[C@H](Cc1c[nH]c2ccccc12)NC(=O)[C@H](Cc1c[nH]cn1)NC(=O)[C@@H]1CCC(=O)N1)C(=O)N[C@@H](Cc1c[nH]cn1)C(=O)N[C@@H](CC(=O)O)C(=O)N[C@@H](Cc1c[nH]c2ccccc12)C(=O)N[C@@H](CCCCNC(=O)CCCC(=O)N(C)CCN(C)C(=O)O[C@@H](C(=O)O[C@H]1C[C@@]2(O)[C@@H](OC(=O)c3ccccc3)[C@@H]3[C@]4(OC(C)=O)CO[C@@H]4C[C@H](O)[C@@]3(C)C(=O)[C@H](OC(C)=O)C(=C1C)C2(C)C)[C@@H](NC(=O)c1ccccc1)c1ccccc1)C(=O)N1CCC[C@H]1C(=O)NCC(N)=O` [compound 25, GnRH-III-[2His-3Trp,8Lys(glutaryl-diamine-PTX)]], the “detection of the diamine-PTX fragment” value in series [5] (even after 24 h of incubation) is given as “could not be detected”. The IC50 in series [1] (setting [6]) is 41500 ± 9830 nM; in series [2] (setting [7]), more than 100000 nM.

With bombesin [reference compound], in series [3], the “GnRH-R binding of the radiotracer affected” value is given as “unable to affect” and the “displacement of radio-labelled triptorelin from GnRH-Rs” value is “not able to displace”.

Regarding somatostatin [reference compound], in series [3], the “GnRH-R binding of the radiotracer affected” value was “unable to affect” and the “displacement of radio-labelled triptorelin from GnRH-Rs” value is “not able to displace”.
